Source: US6977180B2, “Biosensor” (Duke University, priority 2001, dated 2005)

Tests used:
[1] = electrochemical (ac voltammetry) ligand binding of protein-modified gold electrode, glucose; settings: gold disk electrode, 0.1 kHz, read-out: eKd(glucose), dissociation constant of the assembly, determined electrochemically
Procedure: FIGS. 4A–4D. Ligand-mediated electrochemical responses of four electroactive biomolecular assemblies. Inserts show the current responses observed at different ligand concentrations, measured by scanning the potential at a constant frequency. FIG. 4A. G174C-MBP (1 kHz; ^eKd(maltose)=4 μM; ^fKd(maltose)=1 μM), FIG. 4B. L255C-GBP (0.1 kHz; ^eKd(glucose)=2.0 μM; ^fKd(glucose)=0.4 μM), FIG. 4C. G174C-eZBP, a redesigned variant of MBP that binds zinc (1 kHz; ^eKd (zinc)=10 μM; ^fKd(zinc)=3 μM), FIG. 4D. […]
Electrochemistry. […] Ac current baselines were calculated by linear extrapolation between equidistant potentials from the observed midpoint reduction potential (˜220 mV), as reported previously (Creager et al, Anal. Chem. 70:4257–4263 (1998)). […]

[2] = solution ligand binding by intrinsic tryptophan fluorescence of the conjugates, glucose; settings: read-out: fKd(glucose), dissociation constant of the protein free in solution
Procedure: FIGS. 4A–4D. Ligand-mediated electrochemical responses of four electroactive biomolecular assemblies. Inserts show the current responses observed at different ligand concentrations, measured by scanning the potential at a constant frequency. FIG. 4A. G174C-MBP (1 kHz; ^eKd(maltose)=4 μM; ^fKd(maltose)=1 μM), FIG. 4B. L255C-GBP (0.1 kHz; ^eKd(glucose)=2.0 μM; ^fKd(glucose)=0.4 μM), FIG. 4C. G174C-eZBP, a redesigned variant of MBP that binds zinc (1 kHz; ^eKd (zinc)=10 μM; ^fKd(zinc)=3 μM), FIG. 4D. E163C-QBP (0.16 kHz; ^eKd(glutamine)=1.0 μM; ^fKd(glutamine)=0.2 μM. Two binding constants are reported: ^eKd is dissociation constant of the assembly, determined electrochemically; ^fKd is the dissocation constant of the protein free in solution, determined by measuring changes in the intrinsic tryptophan fluorescence of the conjugates. (For every protein presented, the ligand-binding affinities determined electrochemically using a disk gold electrode are 2–5 fold weaker than those in solution. However, if a gold microelectrode prepared by flame annealing a gold wire (Creager et al, Anal. Chem. 70:4257 (1998)) is used instead of a gold disk electrode, the electrochemically determined affinities are similar to the solution affinities.
Protein purification and labeling. […]

## L255C-GBP: glucose-binding protein mutant L255C carrying the Ru(II) redox reporter
[1]
  Kd: 2 µM
[2]
  Kd: 0.4 µM
